# Measurements as given in patent US20100137313A1 (ASTRAZENECA AB, priority 2008, published 2010).
# Biological target: S. pneumoniae Topoisomerase IV ATPase (ParE) (Streptococcus pneumoniae serotype 4, UniProt Q59961)
# Assay: S. pneumoniae Topoisomerase IV ATPase inhibition
# Format: biochemical
# Conditions: values marked * are an average of two or more data points, read-out: % Inh (13 μM) of S. pneumoniae Topoisomerase IV ATPase
# Method in brief: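 Malachite green/ammonium molybdate phosphate detection, A650. 1.25 nM ParE, 160 μM ATP, sheared salmon sperm DNA 5 μg/ml, 20 mM Tris pH 8.0, 8.0 mM MgCl2. Controls: 2% DMSO = 0%, 20 μM EDTA = 100% inhibition; IC50 over 10 concentrations.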
# S. pneumoniae Topoisomerase IV ATPase (ParE), sequence (Q59961 whole entry): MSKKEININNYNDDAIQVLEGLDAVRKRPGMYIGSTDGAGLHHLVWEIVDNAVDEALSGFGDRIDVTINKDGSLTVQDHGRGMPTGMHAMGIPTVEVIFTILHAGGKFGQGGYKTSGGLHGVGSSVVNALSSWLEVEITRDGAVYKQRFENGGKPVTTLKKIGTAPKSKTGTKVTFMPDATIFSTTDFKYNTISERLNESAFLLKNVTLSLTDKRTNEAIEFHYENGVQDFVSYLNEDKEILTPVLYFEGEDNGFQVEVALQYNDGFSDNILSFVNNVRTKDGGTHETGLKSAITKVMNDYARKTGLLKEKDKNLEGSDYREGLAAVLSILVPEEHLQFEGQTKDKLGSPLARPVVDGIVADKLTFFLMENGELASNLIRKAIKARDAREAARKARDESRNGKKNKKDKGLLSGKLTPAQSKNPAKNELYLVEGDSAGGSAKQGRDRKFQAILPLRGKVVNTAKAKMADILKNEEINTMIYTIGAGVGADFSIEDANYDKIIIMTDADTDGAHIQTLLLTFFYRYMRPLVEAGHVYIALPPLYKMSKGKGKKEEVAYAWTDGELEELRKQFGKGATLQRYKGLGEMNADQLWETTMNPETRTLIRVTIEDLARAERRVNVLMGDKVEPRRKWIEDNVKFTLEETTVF
row,SMILES,inhibition at 13 µM [%]
1,"COc1cc(Nc2ncc(-c3cncc(C(=O)NCCS(C)(=O)=O)c3)c(-n3ccc(C(F)(F)F)n3)n2)cc(OC)c1 [Example 684, 5-{2-[(3,5-dimethoxyphenyl)amino]-4-[3-(trifluoromethyl)-1H-pyrazol-1-yl]pyrimidin-5-yl}-N-[2-(methylsulfonyl)ethyl]pyridine-3-carboxamide]",100
2,"COc1cc(Nc2ncc(-c3cncc(C(=O)NCCS(C)(=O)=O)c3)c(-n3nc(C(F)(F)F)cc3C)n2)cc(OC)c1 [Example 685, 5-{2-[(3,5-dimethoxyphenyl)amino]-4-[5-methyl-3-(trifluoromethyl)-1H-pyrazol-1-yl]pyrimidin-5-yl}-N-[2-(methylsulfonyl)ethyl]pyridine-3-carboxamide]",100
3,"COc1cc(Nc2ncc(-c3cncc(C(=O)NS(C)(=O)=O)c3)c(-n3ccc(C(F)(F)F)n3)n2)cc(OC)c1 [Example 686, 5-{2-[(3,5-dimethoxyphenyl)amino]-4-[3-(trifluoromethyl)-1H-pyrazol-1-yl]pyrimidin-5-yl}-N-(methylsulfonyl)pyridine-3-carboxamide]",100
4,"COc1cc(Nc2ncc(-c3cncc(C(=O)NS(C)(=O)=O)c3)c(-n3nc(C(F)(F)F)cc3C)n2)cc(OC)c1 [Example 687, 5-{2-[(3,5-dimethoxyphenyl)amino]-4-[5-methyl-3-(trifluoromethyl)-1H-pyrazol-1-yl]pyrimidin-5-yl}-N-(methylsulfonyl)pyridine-3-carboxamide]",100
5,"CC(=O)c1cccc(Nc2ncc(-c3cccc(/C=C/C(=O)O)c3)c(-n3ccc(C(F)(F)F)n3)n2)c1 [Example 688, (2E)-3-(3-{2-[(3-acetylphenyl)amino]-4-[3-(trifluoromethyl)-1H-pyrazol-1-yl]pyrimidin-5-yl}phenyl)prop-2-enoic acid]",99
6,"CC(=O)c1cccc(Nc2ncc(-c3cccc(/C=C/C(=O)O)c3)c(-n3nc(C(F)(F)F)cc3C)n2)c1 [Example 689, (2E)-3-(3-{2-[(3-acetylphenyl)amino]-4-[5-methyl-3-(trifluoromethyl)-1H-pyrazol-1-yl]pyrimidin-5-yl}phenyl)prop-2-enoic acid]",99
7,"NC(=O)c1cccc(Nc2ncc(-c3cccc(/C=C/C(=O)O)c3)c(-n3ccc(C(F)(F)F)n3)n2)c1 [Example 690, (2E)-3-(3-{2-[(3-carbamoylphenyl)amino]-4-[3-(trifluoromethyl)-1H-pyrazol-1-yl]pyrimidin-5-yl}phenyl)prop-2-enoic acid]",100
8,"N#Cc1cccc(Nc2ncc(-c3cccc(/C=C/C(=O)O)c3)c(-n3ccc(C(F)(F)F)n3)n2)c1 [Example 692, (2E)-3-(3-{2-[(3-cyanophenyl)amino]-4-[3-(trifluoromethyl)-1H-pyrazol-1-yl]pyrimidin-5-yl}phenyl)prop-2-enoic acid]",97
9,"Cc1cc(C(F)(F)F)nn1-c1nc(Nc2cccc(C#N)c2)ncc1-c1cccc(/C=C/C(=O)O)c1 [Example 693, (2E)-3-(3-{2-[(3-cyanophenyl)amino]-4-[5-methyl-3-(trifluoromethyl)-1H-pyrazol-1-yl]pyrimidin-5-yl}phenyl)prop-2-enoic acid]",97
10,"Cc1cccc(Nc2ncc(-c3cccc(/C=C/C(=O)O)c3)c(-n3ccc(C(F)(F)F)n3)n2)c1 [Example 694, (2E)-3-(3-{2-[(3-methylphenyl)amino]-4-[3-(trifluoromethyl)-1H-pyrazol-1-yl]pyrimidin-5-yl}phenyl)prop-2-enoic acid]",100
11,"Cc1cccc(Nc2ncc(-c3cccc(/C=C/C(=O)O)c3)c(-n3nc(C(F)(F)F)cc3C)n2)c1 [Example 695, (2E)-3-(3-{2-[(3-methylphenyl)amino]-4-[5-methyl-3-(trifluoromethyl)-1H-pyrazol-1-yl]pyrimidin-5-yl}phenyl)prop-2-enoic acid]",100
12,"Cc1cccc(Nc2ncc(-c3cncc(C(=O)O)c3)c(-n3nc(C(F)(F)F)cc3C)n2)c1 [Example 711, 5-{2-[(3-methylphenyl)amino]-4-[5-methyl-3-(trifluoromethyl)-1H-pyrazol-1-yl]pyrimidin-5-yl}pyridine-3-carboxylic acid]",100
13,"COc1ncc(-c2cnc(Nc3cccc(C(C)=O)c3)nc2-n2ccc(C(F)(F)F)n2)cc1C(=O)O [Example 720, 5-{2-[(3-acetylphenyl)amino]-4-[3-(trifluoromethyl)-1H-pyrazol-1-yl]pyrimidin-5-yl}-2-methoxypyridine-3-carboxylic acid]",100
14,"COc1ncc(-c2cnc(Nc3cccc(C(C)=O)c3)nc2-n2nc(C(F)(F)F)cc2C)cc1C(=O)O [Example 721, 5-{2-[(3-acetylphenyl)amino]-4-[5-methyl-3-(trifluoromethyl)-1H-pyrazol-1-yl]pyrimidin-5-yl}-2-methoxypyridine-3-carboxylic acid]",100
15,"COc1ncc(-c2cnc(Nc3cccc(C(N)=O)c3)nc2-n2ccc(C(F)(F)F)n2)cc1C(=O)O [Example 722, 5-{2-[(3-carbamoylphenyl)amino]-4-[3-(trifluoromethyl)-1H-pyrazol-1-yl]pyrimidin-5-yl}-2-methoxypyridine-3-carboxylic acid]",93
16,"COc1ncc(-c2cnc(Nc3cccc(C(N)=O)c3)nc2-n2nc(C(F)(F)F)cc2C)cc1C(=O)O [Example 723, 5-{2-[(3-carbamoylphenyl)amino]-4-[5-methyl-3-(trifluoromethyl)-1H-pyrazol-1-yl]pyrimidin-5-yl}-2-methoxypyridine-3-carboxylic acid]",94
17,"COc1ncc(-c2cnc(Nc3cccc(C)c3)nc2-n2ccc(C(F)(F)F)n2)cc1C(=O)O [Example 726, 2-methoxy-5-{2-[(3-methylphenyl)amino]-4-[3-(trifluoromethyl)-1H-pyrazol-1-yl]pyrimidin-5-yl}pyridine-3-carboxylic acid]",100
18,"COc1cc(C#N)cc(Nc2ncc(-c3cccc(/C=C/C(=O)O)c3)c(-n3ccc(C(F)(F)F)n3)n2)c1 [Example 728, (2E)-3-(3-{2-[(3-cyano-5-methoxyphenyl)amino]-4-[3-(trifluoromethyl)-1H-pyrazol-1-yl]pyrimidin-5-yl}phenyl)prop-2-enoic acid]",100
19,"COc1cc(C#N)cc(Nc2ncc(-c3cccc(/C=C/C(=O)O)c3)c(-n3nc(C(F)(F)F)cc3C)n2)c1 [Example 729, (2E)-3-(3-{2-[(3-cyano-5-methoxyphenyl)amino]-4-[5-methyl-3-(trifluoromethyl)-1H-pyrazol-1-yl]pyrimidin-5-yl}phenyl)prop-2-enoic acid]",89
20,"COc1cc(C#N)cc(Nc2ncc(-c3cncc(C(=O)O)c3)c(-n3ccc(C(F)(F)F)n3)n2)c1 [Example 732, 5-{2-[(3-cyano-5-methoxyphenyl)amino]-4-[3-(trifluoromethyl)-1H-pyrazol-1-yl]pyrimidin-5-yl}pyridine-3-carboxylic acid]",100
21,"COc1cc(C#N)cc(Nc2ncc(-c3cncc(C(=O)O)c3)c(-n3nc(C(F)(F)F)cc3C)n2)c1 [Example 733, 5-{2-[(3-cyano-5-methoxyphenyl)amino]-4-[5-methyl-3-(trifluoromethyl)-1H-pyrazol-1-yl]pyrimidin-5-yl}pyridine-3-carboxylic acid]",100
